# Data from article PMC10138714, “Evaluation of Some Safety Parameters of Dual Histamine H3 and Sigma-2 Receptor Ligands with Anti-Obesity Potential” (International Journal of Molecular Sciences, 2023).
# Key:
# mice [1] = assay: Locomotor activity in mice (activity cages, photobeam breaks); type: in vivo, male Albino Swiss (CD-1) mice; settings: single i.p. 30 mg/kg b.w., vs vehicle group
# Method: (§1) Blood pressure measurement and ECG were performed on male Wistar rats weighing 200–220 g (six months old). Locomotor activity and chimney tests were performed on adult male Albino Swiss (CD-1) mice weighing 18–22 g ([…]). The animals were obtained from an accredited animal house at the Faculty of Pharmacy, Jagiellonian University Medical College, Krakow, Poland. The experimental groups consisted of 6–8 animals. The animals were housed in constant temperature (22–24 °C) and humidity (40–60%) facilities, exposed to 12:12 h light/dark cycles, and were maintained on a standard pellet diet with tap water available ad libitum. Rats and mice were housed in pairs or 8 animals per home cage, respectively.
# Locomotor activity was individually recorded for each animal using specifically designed activity cages made of clear Perspex (40 cm × 40 cm × 31 cm, Activity Cage 7441, Ugo Basile, Italy). The cages were supplied with I.R. horizontal beam emitters connected to a counter that records the light-beam interruptions. The compounds suspensions were administered as i.p. injections 30 min before testing. Control animals received injections of vehicles. Each mouse was placed in a cage for a 30 min habituation period. After that time, the number of breaks in the photobeams was measured for 5 min, which is the same time as the observation period used in other tests.
# mice [2] = assay: Motor coordination in the chimney test; type: in vivo, male Albino Swiss (CD-1) mice; settings: for % of Mice Impaired: chimney test, 30 min after injection, n = 8
# Method: as §1
# The effect of tested compounds on motor impairment were quantified with the chimney test of Boissier et al. (1960). The mice were trained before the test, and only the animals able to get out of the chimney within 1 min were used at the experimental stage. The selected mice were placed in a 25 cm-long and 2.5 cm in diameter […] tube, which was reversed so that the mice could leave it only by climbing up backward until they reached the other end. The test was performed 30 min after injection (i.p.) of the examined compounds. Motor impairment was indicated by the inability of the animals to climb up backwards in the transparent tube within 60 s.
# normotensive rats = assay: Blood pressure in anesthetized normotensive rats (carotid artery cannulation); type: in vivo, male Wistar rats
# Method: as §1
# Rats were anesthetized with thiopental (70 mg/kg) via i.p. injection. The left carotid artery was cannulated with polyethylene tubing filled with a heparin solution in saline to facilitate pressure measurements using a PowerLab Apparatus (ADInstruments, Sydney, Australia). After a 20 min stabilization period, the test compounds were administered i.p. at a dose of 10 mg/kg b.w. in a constant volume of 1 mL/kg b.w. Blood pressure was recorded immediately before administration and 5, 10, 15, 20, 30, 40, 50, and 60 min after the administration of the test compound [47].
# [3] = biological target: T1, human ERG potassium channel (Kv11.1) (Homo sapiens, UniProt Q12809); assay: Whole-cell automated patch clamp (QPatch16X), inhibition of hERG currents; type: cell-based; settings: for IC50: CHO cells stably expressing human ERG, whole-cell, mean of three experiments, read-out: Mean IC50 ± SEM, inhibition of hERG currents; for Inhibition of hERG compared with verapamil: relative to reference compound verapamil
# T1 construct: expressed in transfected cells
# T1 sequence (Q12809 whole entry): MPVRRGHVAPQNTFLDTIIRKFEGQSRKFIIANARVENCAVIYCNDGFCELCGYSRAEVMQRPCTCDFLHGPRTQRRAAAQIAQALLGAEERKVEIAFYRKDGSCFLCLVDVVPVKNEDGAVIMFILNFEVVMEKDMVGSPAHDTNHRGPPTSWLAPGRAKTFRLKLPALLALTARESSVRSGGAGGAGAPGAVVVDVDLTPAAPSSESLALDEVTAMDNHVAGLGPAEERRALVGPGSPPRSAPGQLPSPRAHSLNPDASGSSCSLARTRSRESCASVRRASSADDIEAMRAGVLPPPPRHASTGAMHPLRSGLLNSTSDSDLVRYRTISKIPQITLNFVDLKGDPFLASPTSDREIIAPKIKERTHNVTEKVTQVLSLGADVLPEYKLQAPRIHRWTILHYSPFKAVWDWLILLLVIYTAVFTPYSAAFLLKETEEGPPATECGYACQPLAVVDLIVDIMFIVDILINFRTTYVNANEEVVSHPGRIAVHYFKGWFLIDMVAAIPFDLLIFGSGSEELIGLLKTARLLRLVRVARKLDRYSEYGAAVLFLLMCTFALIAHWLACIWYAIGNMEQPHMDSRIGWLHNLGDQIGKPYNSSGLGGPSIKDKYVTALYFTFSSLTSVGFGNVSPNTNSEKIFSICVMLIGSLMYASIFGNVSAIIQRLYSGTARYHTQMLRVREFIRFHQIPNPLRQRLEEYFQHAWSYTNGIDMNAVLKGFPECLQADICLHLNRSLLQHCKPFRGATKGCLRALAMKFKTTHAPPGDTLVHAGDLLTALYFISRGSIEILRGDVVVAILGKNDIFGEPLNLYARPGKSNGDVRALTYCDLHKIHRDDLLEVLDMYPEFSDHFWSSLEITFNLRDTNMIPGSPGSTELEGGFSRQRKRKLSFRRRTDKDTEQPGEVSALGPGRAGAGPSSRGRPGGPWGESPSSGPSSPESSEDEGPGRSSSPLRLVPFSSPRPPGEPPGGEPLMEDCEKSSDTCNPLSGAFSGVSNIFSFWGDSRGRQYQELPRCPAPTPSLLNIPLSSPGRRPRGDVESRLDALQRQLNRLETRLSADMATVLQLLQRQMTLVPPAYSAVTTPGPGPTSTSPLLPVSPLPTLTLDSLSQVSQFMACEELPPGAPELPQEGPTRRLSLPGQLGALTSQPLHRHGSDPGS
# Method: Electrophysiology experiments were performed on a QPatch16X automatic patch clamp platform (Sophion Bioscience, Ballerup, Denmark). Chinese hamster ovary (CHO) cells stably expressing the human ERG potassium channel (Kv11.1) were cultured using standard procedures. On the day of the experiment, cells were collected from the culture flask using TrypLE Express solution (Life Technologies, Thermo Fisher Scientific, Carlsbad, California, United States) and resuspended in EX-CELL ACF CHO serum-free medium (Merck KGaA, Sigma-Aldrich, Darmstadt, Germany), supplemented with 25 mM HEPES, 100 U/mL penicillin/streptomycin, and 0.04 mg/mL soybean trypsin inhibitor (all components from Sigma Aldrich).
# The cells were placed in the lidless microtube and located onboard the automated electrophysiology instrument, where they were automatically relocated to a built-in centrifuge.
# Cells were transferred to pipetting wells of single-use 16-channel planar patch chip plates (QPlate 16X, Sophion Bioscience, Ballerup, Denmark) and gigaseals were formed upon application of a combined suction/voltage protocol in a standard protocol supplied by Sophion Bioscience for CHO cells. Once the whole-cell mode was obtained, the cells were kept in a holding potential of -90 mV between the programmed stimulation protocols.
# Whole-cell potassium currents were measured in response to repeatedly executed voltage protocols constituted of the following steps: brief clamping to −50 mV (200 ms), subsequent depolarization to 20 mV for 4000 ms, and final repolarization to −50 mV when the outward tail current was measured for 4000 ms.
# The average current peak values determined in the presence of particular concentrations of the compound tested were subjected to a sigmoidal dose–response curve fitting, where the bottom plateau parameter was constrained to 0. The IC50 values were then calculated from the obtained sigmoidal dose–response curves. Data were analyzed using QPatch Assay Software (v5.0, Sophion Bioscience, Ballerup, Denmark) and represent the mean of three experiments carried out on distinct cells.
# rats = assay: Heart rate and ECG intervals in rats; type: in vivo, male Wistar rats; settings: 10 mg/kg i.p.
# Method: as §1
# In vivo electrocardiographic measurements were performed using an ASPEL ASCARD B5 apparatus, standard lead II, and a paper speed of 50 mm/s. The study was carried out after a single administration of the test compounds (10 mg/kg i.p.). […] The following parameters were then calculated and analyzed: duration of PQ, QT, QRS, RR intervals, and heart rate.
# [4] = tested on: rats fed a palatable diet; assay: Plasma AlaT, AspaT, gGT and ALP activity after repeated administration in rats fed a palatable diet; type: in vivo; settings: 10 mg/kg b.w. i.p. repeated; for Plasma AspaT activity: relative to both control groups (standard or palatable feed); for Plasma gGT activity: vs palatable feed-fed control group; for Plasma AlaT activity: vs vehicle control fed palatable feed
# Method: Standard diet ( 8% fats, 67% carbohydrates, and 25% proteins) contained 100 g feed—280 kcal. Rats fed a palatable diet had access to a diet consisting of milk chocolate with nuts, cheese, salted peanuts, and 7% condensed milk and simultaneously to standard feed (Labofeed B, Morawski Manufacturer Feed, Kcynia, Poland) for 4 weeks. The feeding was not in any way forced, and rats decided themselves when, what, and how much to eat. A palatable diet contained 100 g of peanuts—612 kcal; 100 mL of condensed milk—131 kcal; 100 g of milk chocolate—529 kcal; and 100 g of cheese—325 kcal.
# The study evaluating the activities of alanine aminotransferase (AlaT), aspartate aminotransferase (AspaT), gamma-glutamyl transpeptidases (gGT), and alkaline phosphatase (ALP) was carried out after completing the excessive eating model experiments described in our previous work. Compounds were administered for twenty-eight days at a dose of 10 mg/kg b.w./day. On the 31st day of the experiment, 20 min after i.p. administration of heparin (5000 units/rat) and thiopental (70 mg/kg b.w.), blood was collected from the left carotid artery and then centrifuged at 600× g (15 min, 4 °C) in order to obtain the plasma. To determine the activities of AlaT, AapaT, gGT, and ALP in the plasma samples, a standard enzymatic spectrophotometric test (Biomaxima S.A., Lublin, Poland) was used.
# H3R = biological target: H3R; parameters: method as in PMID 34908391; settings: cited from earlier work; for H3/σ1 / H3/σ2: ratio of Ki values
# σ1R = biological target: σ1R; parameters: method as in PMID 34908391; settings: cited from earlier work; for σ1/σ2: ratio of Ki values
# σ2R = biological target: σ2R; parameters: method as in PMID 34908391; settings: cited from earlier work
# [5] = vs control group fed standard feed
# [6] = single i.p. 10 mg/kg b.w., 30–60 min after administration
Locomotor activity (mice [1]),% of Mice Impaired (mice [2]; 10 mg/kg i.p.),% of Mice Impaired (mice [2]; 20 mg/kg i.p.),% of Mice Impaired (mice [2]; 30 mg/kg i.p.),Structure (SMILES),IC50 [3],Inhibition of hERG compared with verapamil [3],Heart rate (rats; time 0 min),PQ (rats; time 0 min),QRS (rats; time 0 min),QT (rats; time 0 min),Heart rate (rats; time 15 min),PQ (rats; time 15 min),QRS (rats; time 15 min),QT (rats; time 15 min),Heart rate (rats; time 30 min),PQ (rats; time 30 min),QRS (rats; time 30 min),QT (rats; time 30 min),Heart rate (rats; time 45 min),PQ (rats; time 45 min),other results
significant decrease,25%,12.5%,25%,c1ccc(-c2ccc(OCCCN3CCN(c4ccncc4)CC3)cc2)cc1 [KSK-61],2660 ± 217 nM,about five times weaker,373.2 ± 20.3 beats/min,53 ± 1.6 ms,20.8 ± 0.8 ms,56.3 ± 4.1 ms,369.5 ± 9.5 beats/min,52.8 ± 1.5 ms,21.5 ± 0.5 ms,56.3 ± 2.2 ms,380.2 ± 30.5 beats/min,54.5 ± 3.5 ms,21.8 ± 1.1 ms,58.8 ± 2.2 ms,349.5 ± 21.3 beats/min,53.3 ± 1.8 ms,"Effect on motor coordination (chimney test) (mice [2]; mice, 10-30 mg/kg i.p., Fisher exact probability test): decreases the ability to exit the chimney at all doses tested in one or two mice per group; Effect on blood pressure (normotensive rats; single i.p. 10 mg/kg b.w., vs vehicle (1% Tween 80)): did not affect blood pressure; QRS (rats; time 45 min): 21.8 ± 0.8 ms; QT (rats; time 45 min): 57.5 ± 4.3 ms; Heart rate (rats; time 60 min): 360.4 ± 20.3 beats/min; PQ (rats; time 60 min): 53 ± 1.6 ms; QRS (rats; time 60 min): 21.8 ± 0.4 ms; QT (rats; time 60 min): 55 ± 5.0 ms; Plasma AspaT activity [4]: higher AspaT activity; Plasma ALP activity [4, 5]: greater ALP activity; Plasma gGT activity [4]: statistically lower gGT activity; Ki (H3R): 21.1 nM; H3/σ1 (H3R): 0.03; H3/σ2 (H3R): 0.20; Ki (σ1R): 638 nM; σ1/σ2 (σ1R): 5.90; Ki (σ2R): 108 nM"
significant decrease,12.5%,0%,0%,CC(=O)c1ccc(OCCCCCCCCN2CCN(c3ccncc3)CC2)cc1 [KSK-73],2070 ± 402 nM,four times weaker,370.0 ± 23.9 beats/min,56.3 ± 2.2 ms,22.7 ± 5.4 ms,61.3 ± 2.2 ms,375.5 ± 23.9 beats/min,51.3 ± 2.2 ms,22.7 ± 5.4 ms,63.8 ± 4.1 ms,377.1 ± 27.3 beats/min,51.3 ± 2.2 ms,22.7 ± 5.4 ms,60.0 ± 7.1 ms,395.8 ± 33.3 beats/min,52.5 ± 2.5 ms,Decrease of diastolic blood pressure (normotensive rats; [6]): 10–14 mmHg; Decrease of systolic blood pressure (normotensive rats; [6]): approx. 12 mmHg; QRS (rats; time 45 min): 20.0 ± 0.0 ms; QT (rats; time 45 min): 58.8 ± 2.2 ms; Heart rate (rats; time 60 min): 377.0 ± 26.4 beats/min; PQ (rats; time 60 min): 53.8 ± 2.2 ms; QRS (rats; time 60 min): 20.0 ± 0.0 ms; QT (rats; time 60 min): 63.8 ± 6.5 ms; Plasma gGT activity [4]: statistically lower gGT activity; Plasma AlaT activity [4]: lower; Plasma ALP activity ([4]; vs vehicle group with palatable feed): lower plasma ALP activity; Ki (H3R): 40.5 nM; H3/σ1 (H3R): 0.1; H3/σ2 (H3R): 0.68; Ki (σ1R): 408 nM; σ1/σ2 (σ1R): 6.84; Ki (σ2R): 59.7 nM

Structure (SMILES),Locomotor activity (mice [1]),% of Mice Impaired (mice [2]; 10 mg/kg i.p.),% of Mice Impaired (mice [2]; 20 mg/kg i.p.),% of Mice Impaired (mice [2]; 30 mg/kg i.p.),IC50 [3],Inhibition of hERG compared with verapamil [3],Heart rate (rats; time 0 min),PQ (rats; time 0 min),QRS (rats; time 0 min),QT (rats; time 0 min),Heart rate (rats; time 15 min),PQ (rats; time 15 min),QRS (rats; time 15 min),QT (rats; time 15 min),Heart rate (rats; time 30 min),PQ (rats; time 30 min),QRS (rats; time 30 min),QT (rats; time 30 min),Heart rate (rats; time 45 min),PQ (rats; time 45 min),other results
O=C(c1ccccc1)c1ccc(OCCCN2CCN(c3ccncc3)CC2)cc1 [KSK-63],significant decrease,0%,0%,0%,570 ± 50 nM,close to the reference compound,393.8 ± 34.8 beats/min,57.5 ± 2.5 ms,20.0 ± 0.0 ms,63.3 ± 5.1 ms,362.8 ± 38.0 beats/min,55.0 ± 5.0 ms,20.0 ± 0.0 ms,64.4 ± 2.6 ms,365.2 ± 34.8 beats/min,58.75 ± 1.3 ms,20.0 ± 0.0 ms,65.3 ± 4.7 ms,344.3 ± 30.8 beats/min,55.0 ± 5.0 ms,"Increase of systolic blood pressure (normotensive rats; single i.p. 10 mg/kg b.w., 5, 10 and 20 min after administration): 16–22 mmHg; QRS (rats; time 45 min): 20 ± 0.0 ms; QT (rats; time 45 min): 62.1 ± 1.6 ms; Heart rate (rats; time 60 min): 344.3 ± 30.8 beats/min; PQ (rats; time 60 min): 62.5 ± 2.1 ms; QRS (rats; time 60 min): 20.0 ± 0.0 ms; QT (rats; time 60 min): 65.2 ± 3.6 ms; Plasma AspaT activity [4]: higher AspaT activity; Plasma ALP activity [4, 5]: greater ALP activity; Plasma gGT activity [4]: statistically lower gGT activity; Plasma AlaT activity [4]: lower; H3/σ1 (H3R): 0.004; H3/σ2 (H3R): 0.11; Ki (σ1R): 726 nM; σ1/σ2 (σ1R): 24.83; Ki (σ2R): 29.2 nM"
